System: male NMRI mice
Assay: not given
Conditions: mouse, in vivo

Row | Compound | reduction in the pain in the models of the centrally mediated types of pain
1 | 2-(3,4-dichlorophenyl)-1-{(4aRS,8SR,8aSR)-8-[(3SR)-3-hydroxypyrrolidin-1-yl]perhydroquinoxalin-1-yl}ethan-1-one and 2-(3,4-dichlorophenyl)-1-{(4aRS,8SR,8aSR)-8-[(3RS)-3-hydroxypyrrolidin-1-yl]perhydroquinoxalin-1-yl}ethan-1-one [Example 2] | no significant reduction in the pain

Biological target: T1, κ receptor (Cavia porcellus, UniProt P41144)
T1 construct: sucrose solution (0.32 M) was added to five guinea pig brains and the mixture was homogenized; from tissue; host or cells: whole guinea pig brain membrane homogenate
Assay: biochemical
Format: binding, guinea pig
Conditions: not given

T1 sequence (P41144 whole entry): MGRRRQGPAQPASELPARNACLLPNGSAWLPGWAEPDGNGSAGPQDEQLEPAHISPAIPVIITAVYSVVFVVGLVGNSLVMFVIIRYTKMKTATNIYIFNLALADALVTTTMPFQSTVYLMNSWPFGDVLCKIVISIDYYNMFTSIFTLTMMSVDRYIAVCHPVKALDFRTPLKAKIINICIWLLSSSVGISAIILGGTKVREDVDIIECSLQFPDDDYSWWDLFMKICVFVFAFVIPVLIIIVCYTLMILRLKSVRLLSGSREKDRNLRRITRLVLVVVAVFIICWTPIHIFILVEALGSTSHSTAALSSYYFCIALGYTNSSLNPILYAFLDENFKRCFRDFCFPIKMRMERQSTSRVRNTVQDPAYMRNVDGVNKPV

Row | Compound | Ki [nM]
2 | COC(=O)CC(=O)N1CCN(C(=O)Cc2ccc(Cl)c(Cl)c2)[C@H]2[C@H]1CCC[C@@H]2N1CCCC1 (racemic) [Example 13, methyl 3-{(4aRS,8SR,8aRS)-1-[2-(3,4-dichlorophenyl)acetyl]-8-(pyrrolidin-1-yl)-perhydroquinoxalin-4-yl}-3-oxopropionate] | 11 ± 5.6
3 | CCCCN1CCN(C(=O)Cc2ccc(Cl)c(Cl)c2)[C@H]2[C@H]1CCC[C@@H]2N1CCCC1 (racemic) [Example 19, 1-[(4aRS,8SR,8aRS)-4-butyl-8-(pyrrolidin-1-yl)perhydroquinoxalin-1-yl]-2-(3,4-dichlorophenyl)-ethan-1-one] | 3.1 ± 1.8
4 | COc1ccc(CN2CCN(C(=O)Cc3ccc(Cl)c(Cl)c3)[C@H]3[C@H]2CCC[C@@H]3N2CCCC2)cc1 (racemic) [Example 20, 2-(3,4-dichlorophenyl)-1-[(4aRS,8SR,8aRS)-4-(4-methoxybenzyl)-8-(pyrrolidin-1-yl)-perhydroquinoxalin-1-yl]ethan-1-one] | 6.8 ± 2
5 | O=C(Cc1ccc(Cl)c(Cl)c1)N1CCN(Cc2ccccn2)[C@@H]2CCC[C@H](N3CCCC3)[C@H]21 (racemic) [Example 21, 2-(3,4-dichlorophenyl)-1-{(4aRS,8SR,8aRS)-4-[(pyridin-2-yl)methyl]-8-(pyrrolidin-1-yl)perhydroquinoxalin-1-yl}ethan-1-one] | 4.2 ± 2.6
6 | O=C(Cc1ccc(Cl)c(Cl)c1)N1CCN(Cc2cccnc2)[C@@H]2CCC[C@H](N3CCCC3)[C@H]21 (racemic) [Example 22, 2-(3,4-dichlorophenyl)-1-{(4aRS,8SR,8aRS)-4-[(pyridin-3-yl)methyl]-8-(pyrrolidin-1-yl)perhydroquinoxalin-1-yl}ethan-1-one] | 0.13 ± 0.02

Same assay, conditions: read-out: κ: Ki ± SEM

Row | Compound | Ki [nM]
7 | O=C(Cc1ccc(Cl)c(Cl)c1)N1CCN(Cc2ccccc2)C2CCCC(N3CCC(O)C3)C21 (stereo not drawn) [Example 5, 1-{(4aRS,8SR,8aSR)-4-benzyl-8-[(3SR)- and (3RS)-3-hydroxypyrrolidin-1-yl]perhydroquinoxalin-1-yl}-2-(3,4-dichlorophenyl)ethan-1-one] | 6.6 ± 1.4
8 | O=C(c1ccccc1)N1CCN(C(=O)Cc2ccc(Cl)c(Cl)c2)C2C(N3CCC(O)C3)CCCC21 (stereo not drawn) [Example 14, 1-{(4aRS,8SR,8aSR)-4-benzoyl-8-[(3SR)- and (3RS)-3-hydroxypyrrolidin-1-yl]-perhydroquinoxalin-1-yl}-2-(3,4-dichlorophenyl)ethan-1-one] | 22 ± 5.6
9 | COC(=O)N1CCN(C(=O)Cc2ccc(Cl)c(Cl)c2)C2C(N3CCC(O)C3)CCCC21 (stereo not drawn) [Example 15, methyl{(4aRS,8SR,8aRS)-1-[2-(3,4-dichlorophenyl)acetyl]-8-[(3SR)- and (3RS)-3-hydroxypyrrolidin-1-yl]-perhydroquinoxalin-4-yl}carboxylate] | 11 ± 2.8
10 | O=C(O)CC(=O)N1CCN(C(=O)Cc2ccc(Cl)c(Cl)c2)C2C(N3CCC(O)C3)CCCC21 (stereo not drawn) [Example 16, 3-{(4aRS,8SR,8aRS)-1-[2-(3,4-dichlorophenyl)acetyl]-8-[(3SR)- and (3RS)-3-hydroxypyrrolidin-1-yl]-perhydroquinoxalin-4-yl}-3-oxopropionic acid] | 482 ± 113
11 | COC(=O)CC(=O)N1CCN(C(=O)Cc2ccc(Cl)c(Cl)c2)C2C(N3CCC(O)C3)CCCC21 (stereo not drawn) [Example 17, methyl 3-{(4aRS,8SR,8aRS)-1-[2-(3,4-dichlorophenyl)acetyl]-8-[(3SR)- and (3RS)-3-hydroxypyrrolidin-1-yl]-perhydroquinoxalin-4-yl}-3-oxopropionate] | 18 ± 2.2
12 | O=C(Cc1ccc(Cl)c(Cl)c1)N1CCN(Cc2cccnc2)C2CCCC(N3CCC(O)C3)C21 (stereo not drawn) [Example 25, 2-(3,4-dichlorophenyl)-1-{(4aRS,8SR,8aSR)-4-[(pyridin-3-yl)methyl]-8-[(3SR)- and (3RS)-3-hydroxypyrrolidin-1-yl]perhydroquinoxalin-1-yl}ethan-1-one] | 3.8 ± 0.7

— US8309725B2 (priority 2007, dated 2012)
